From patent publication US9645154B2, “Method for detecting cancer cell” (ARKRAY, Inc., priority 2010, dated 2017)

System: Blood cells
Test: Labeled sugar incorporation, fluorescence microscopy image analysis (false-positive/negative rate)
Type: cell-based, human
Text: Blood was collected from a human subject using a vacuum blood collection tube (with EDTA•2K). Blood cells were separated using HetaSep (STEMCELL Technologies) in accordance with manufacturer's instructions.
When performing the hemolyzing treatment, the blood cell fraction collected as described above was hemolyzed using ammonium chloride (STEMCELL Technologies) according to the manufacture's manuals.
The number of the cells was counted for each cell line using a hemacytometer in accordance with the conventional method, and then 10^5 to 10^6 cells per sample (cell suspension) was aliquoted. Each of the sample was centrifuged to remove the supernatant. Subsequently, 2-NBDG (Wako Pure Chemical Industries, Ltd.; at the final concentration given in Table 3 or 4) dissolved in Dulbecco's PBS (−) was added thereto, and the cells were suspended well. After the reaction, Dulbecco's PBS (−) was added to the mixture, and the resultant was centrifuged to remove the supernatant. The cells were resuspended with Dulbecco's PBS (−) and centrifuged, and the supernatant was removed again. The steps of resuspending cells with Dulbecco's PBS (−), centrifuging and removing the supernatant were then repeated 2 to 3 times, thereby washing the cells thoroughly. The cells were resuspended with Dulbecco's PBS (−), the concentration thereof was adjusted, and then added dropwise to a 384-well plate. The plate was centrifuged to spin down the cells. The image was captured with a fluorescence microscope (Nikon Corp.) using B-2A filter combination (Nikon Corp.). The B-2A set covers the following wavelengths. EX (excitation wavelength): 475±15 nm, DM: 505 nm or longer, BA (fluorescence wavelength) 520 nm or longer.
The acquired images were analyzed using an image analysis software NIS-ELEMENTS (trade name, Nikon Corp.) to evaluate the fluorescence intensity of the cell. […]

[1] = hemolyzed, 10 mM, 5 min, 23° C., threshold value 880 (Prostate cancer)
[2] = hemolyzed, 0.1 mM, 37° C., 30 min, threshold value 380
[3] = hemolyzed, 1 mM, 37° C., 30 min, threshold value 520
[4] = hemolyzed, 10 mM, 37° C., 30 min, threshold value 1150
[5] = hemolyzed, 4° C., 10 mM, 5 min, threshold value 640
[6] = hemolyzed, 23° C., 10 mM, 5 min, threshold value 640
[7] = hemolyzed, 37° C., 10 mM, 5 min, threshold value 750
[8] = hemolyzed, 5 min, 10 mM, 37° C., threshold value 570
[9] = hemolyzed, 30 min, 10 mM, 37° C., threshold value 880
[10] = hemolyzed, 60 min, 10 mM, 37° C., threshold value 750
[11] = not hemolyzed, 10 mM, 5 min, 23° C.
[12] = single, Glucose conc.: 1 mM, Temp.: 37° C., Time: 30 min, threshold value 280 (Colon adenocarcinoma)
[13] = single, Glucose conc.: 1 mM, Temp.: 37° C., Time: 30 min, threshold value 370 (Fibrosarcoma)
[14] = single, Glucose conc.: 1 mM, Temp.: 37° C., Time: 30 min, threshold value 490 (Gastric cancer)
[15] = without hemolyzing treatment, 0.1 mM, 37° C., 30 min, threshold value 280
[16] = without hemolyzing treatment, 1 mM, 37° C., 30 min, threshold value 330
[17] = without hemolyzing treatment, 10 mM, 37° C., 30 min, threshold value 450 (concentration series)
[18] = without hemolyzing treatment, 4° C., 10 mM, 5 min, threshold value 310
[19] = without hemolyzing treatment, 23° C., 10 mM, 5 min, threshold value 360
[20] = without hemolyzing treatment, 37° C., 10 mM, 5 min, threshold value 390
[21] = without hemolyzing treatment, 5 min, 10 mM, 37° C., threshold value 380
[22] = without hemolyzing treatment, 30 min, 10 mM, 37° C., threshold value 450 (time series)
[23] = without hemolyzing treatment, 60 min, 10 mM, 37° C., threshold value 500

O=[N+]([O-])c1ccc(N[C@H]2C(O)O[C@H](CO)[C@@H](O)[C@@H]2O)c2nonc12 (stereo partly drawn) [2-NBDG, 2-[N-(7-nitrobenz-2-oxa-1,3-diazol-4-yl)amino]-2-deoxy-D-glucose]
Negative rate (Blood cells (fresh blood)) [1]: 100.0%
Positive rate (Blood cells (fresh blood)) [1]: 0.0%
Negative rate (Blood cells) [2]: 100.0%
Positive rate (Blood cells) [2]: 0.0%
Negative rate (Blood cells) [3]: 98.9%
Positive rate (Blood cells) [3]: 1.1%
Negative rate (Blood cells) [4]: 100.0%
Positive rate (Blood cells) [4]: 0.0%
Negative rate (Blood cells) [5]: 100.0%
Positive rate (Blood cells) [5]: 0.0%
Negative rate (Blood cells) [6]: 99.2%
Positive rate (Blood cells) [6]: 0.8%
Negative rate (Blood cells) [7]: 98.5%
Positive rate (Blood cells) [7]: 1.5%
Negative rate (Blood cells) [8]: 99.1%
Positive rate (Blood cells) [8]: 0.9%
Negative rate (Blood cells) [9]: 99.7%
Positive rate (Blood cells) [9]: 0.3%
Negative rate (Blood cells) [10]: 97.1%
Positive rate (Blood cells) [10]: 2.9%
Negative rate (Blood cells (fresh blood)) [11]: 97.9%
Positive rate (Blood cells (fresh blood)) [11]: 2.1%
Negative rate (Blood cells (fresh blood)) [12]: 96.6%
Positive rate (Blood cells (fresh blood)) [12]: 3.4%
Negative rate (Blood cells (fresh blood)) [13]: 95.2%
Positive rate (Blood cells (fresh blood)) [13]: 4.8%
Negative rate (Blood cells (fresh blood)) [14]: 100.0%
Positive rate (Blood cells (fresh blood)) [14]: 0.0%
Negative rate (Blood cells) [15]: 100.0%
Positive rate (Blood cells) [15]: 0.0%
Negative rate (Blood cells) [16]: 98.5%
Positive rate (Blood cells) [16]: 1.5%
Negative rate (Blood cells) [17]: 98.9%
Positive rate (Blood cells) [17]: 1.1%
Negative rate (Blood cells) [18]: 99.1%
Positive rate (Blood cells) [18]: 0.9%
Negative rate (Blood cells) [19]: 97.9%
Positive rate (Blood cells) [19]: 2.1%
Negative rate (Blood cells) [20]: 99.0%
Positive rate (Blood cells) [20]: 1.0%
Negative rate (Blood cells) [21]: 98.6%
Positive rate (Blood cells) [21]: 1.4%
Negative rate (Blood cells) [22]: 98.9%
Positive rate (Blood cells) [22]: 1.1%
Negative rate (Blood cells) [23]: 91.2%
Positive rate (Blood cells) [23]: 8.8%
